Laboratory results as given in patent US20250188084A1, “COMPOUNDS AND METHODS FOR MODULATING CDK9 ACTIVITY” (KRONOS BIO, INC., priority 2020, published 2025).

What was measured:
CDK9 [1] = target: T1, CDK9 (Homo sapiens, UniProt P50750); test: CDK9 degradation by HiBit assay, NCIH211 cells; assay type: cell-based; conditions: NCIH211 cells with endogenously tagged N-terminal CDK9-HiBit, 24 hours incubation, read-out: HiBit-NCIH211.2 DC50
T1 construct: NCIH211 cells with endogenously tagged N-terminal CDK9-HiBit; endogenous in cells; host or cells: NCIH211 cells (endogenous CDK9 locus tagged with HiBit)
Description: (§1) Exemplary compounds of the invention were tested for degradation of CDK9. The compounds were tested in 10-dose DC50 duplicate mode with a 3-fold serial dilution starting at 10 μM by HiBit assay (Promega, Inc) as a direct measurement of CDK9 presence, with incubation time of 24 hours using either NCIH211 cells with endogenously tagged N-terminal CDK9-HiBit or NCIH1048 cells with endogenously tagged N-terminal CDK9-HiBit. A control compound (THAL-SNS-032, CAS 2139287-33-3) was tested in 10-dose DC50 mode with 3-fold serial dilution starting at 10 μM. Data was normalized to positive (medium only) and negative (cells with no treatment) controls and curve fits were analyzed with CDK9 as % response vs. log [compound concentration] using a 4-parameter logistic model by GraphPad software. For Table 2: A is <100, B is <1000 C is <10,000, D is >10,000 and ND is Not Determined.

CDK9 [2] = target: T1, CDK9; test: CDK9 degradation by HiBit assay, NCIH1048 cells; assay type: cell-based; conditions: NCIH1048 cells with endogenously tagged N-terminal CDK9-HiBit, 24 hours incubation, read-out: HiBit-NCIH1048.3 DC50
Description: as §1

[3] = numeric value (control compound)

T1 sequence (P50750 whole entry): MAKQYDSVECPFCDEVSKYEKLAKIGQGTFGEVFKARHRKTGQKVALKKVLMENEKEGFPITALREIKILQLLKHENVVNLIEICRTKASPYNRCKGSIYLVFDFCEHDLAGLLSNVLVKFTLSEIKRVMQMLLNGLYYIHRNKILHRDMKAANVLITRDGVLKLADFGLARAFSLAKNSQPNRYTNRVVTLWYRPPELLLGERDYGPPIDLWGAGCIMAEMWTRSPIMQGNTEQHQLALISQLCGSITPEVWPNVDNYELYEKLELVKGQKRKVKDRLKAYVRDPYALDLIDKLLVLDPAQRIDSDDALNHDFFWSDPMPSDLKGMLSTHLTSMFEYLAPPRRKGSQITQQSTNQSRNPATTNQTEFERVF
T1 sequence (O60563 whole entry partner): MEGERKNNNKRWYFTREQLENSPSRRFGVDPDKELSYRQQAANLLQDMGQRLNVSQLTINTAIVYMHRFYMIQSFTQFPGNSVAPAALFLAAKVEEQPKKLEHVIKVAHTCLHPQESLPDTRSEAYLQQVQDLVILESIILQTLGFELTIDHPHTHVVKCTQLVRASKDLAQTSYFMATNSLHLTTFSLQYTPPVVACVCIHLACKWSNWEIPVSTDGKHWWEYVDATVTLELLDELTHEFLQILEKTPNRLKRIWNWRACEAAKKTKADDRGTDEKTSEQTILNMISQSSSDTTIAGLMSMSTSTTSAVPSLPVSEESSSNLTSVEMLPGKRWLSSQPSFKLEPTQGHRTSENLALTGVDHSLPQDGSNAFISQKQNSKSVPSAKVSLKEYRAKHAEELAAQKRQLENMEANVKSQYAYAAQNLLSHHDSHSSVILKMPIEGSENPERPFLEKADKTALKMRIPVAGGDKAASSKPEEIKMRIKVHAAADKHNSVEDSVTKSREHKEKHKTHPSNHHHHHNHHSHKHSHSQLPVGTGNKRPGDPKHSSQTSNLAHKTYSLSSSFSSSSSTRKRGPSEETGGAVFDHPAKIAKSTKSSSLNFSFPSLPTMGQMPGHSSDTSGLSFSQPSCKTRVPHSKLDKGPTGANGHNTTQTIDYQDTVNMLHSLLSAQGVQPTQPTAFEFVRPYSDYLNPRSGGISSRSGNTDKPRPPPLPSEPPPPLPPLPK

Row | Structure (SMILES) | DC50 (CDK9 [1]) | DC50 (CDK9 [2]) | DC50 (CDK9 [1]; [3]) | DC50 (CDK9 [2]; [3])
1 | CCC(CC)c1cc(N[C@H]2CC[C@H](NCC(=O)N3CCN(CCCNc4cccc5c4C(=O)N(C4CCC(=O)NC4=O)C5=O)CC3)C2)n2nccc2n1 (stereo partly shown) [Compound 48.0] | < 1000 nM | < 100 nM | – | –
2 | CCC(CC)c1cc(N[C@H]2CC[C@H](NCC(=O)N3CCN(CCCNc4cccc5c4C(=O)N(C4CCC(=O)NC4=O)C5=O)CC3)C2)n2ncc(Cl)c2n1 (stereo partly shown) [Compound 50.0] | < 100 nM | < 100 nM | – | –
3 | CCC(CC)c1cc(N[C@H]2CC[C@H](NCC(=O)NCCCc3cn(CCOCCOCCOc4cc(-c5scnc5C)ccc4CNC(=O)[C@@H]4C[C@@H](O)CN4C(=O)[C@H](C(C)C)N4Cc5ccccc5C4=O)nn3)C2)n2ncc(Cl)c2n1 [Compound 51.0] | < 10000 nM | < 10000 nM | – | –
4 | CCC(CC)c1cc(N[C@H]2CC[C@H](NCC(=O)NCCCc3cn(CCOCCOc4cc(-c5scnc5C)ccc4CNC(=O)[C@@H]4C[C@@H](O)CN4C(=O)[C@H](C(C)C)N4Cc5ccccc5C4=O)nn3)C2)n2ncc(Cl)c2n1 [Compound 52.0] | > 10000 nM | < 10000 nM | – | –
5 | CCC(CC)c1cc(N[C@H]2CC[C@H](NCC(=O)NCCCc3cn(CCOCCOCCOCCOc4cc(-c5scnc5C)ccc4CNC(=O)[C@@H]4C[C@@H](O)CN4C(=O)[C@H](C(C)C)N4Cc5ccccc5C4=O)nn3)C2)n2ncc(Cl)c2n1 [Compound 53.0] | < 10000 nM | < 10000 nM | – | –
6 | CCC(CC)c1cc(N[C@H]2CC[C@H](NCC(=O)NCCCc3cn(CCOCCOCCOCCOCCOc4cc(-c5scnc5C)ccc4CNC(=O)[C@@H]4C[C@@H](O)CN4C(=O)[C@H](C(C)C)N4Cc5ccccc5C4=O)nn3)C2)n2ncc(Cl)c2n1 [Compound 54.0] | < 10000 nM | < 10000 nM | – | –
7 | C/C=C(\CC)c1cc(N[C@H]2CC[C@H](NCC(=O)N3CCN(CCCCNc4cccc5c4C(=O)N(C4CCC(=O)NC4=O)C5=O)CC3)C2)n2nccc2n1 (stereo partly shown) [Compound 56.0] | < 100 nM | < 100 nM | – | –
8 | C/C=C(\CC)c1cc(N[C@H]2CC[C@H](NCC(=O)N3CCN(CCNc4cccc5c4C(=O)N(C4CCC(=O)NC4=O)C5=O)CC3)C2)n2ncc(Cl)c2n1 (stereo partly drawn) [Compound 58.0, 4-[2-[4-[2-[[(1S,3S)-3-[[3-chloro-5-[(E)-1-ethylprop-1-enyl]pyrazolo[1,5-a]pyrimidin-7-yl]amino]cyclopentyl]amino]acetyl]piperazin-1-yl]ethylamino]-2-(2,6-dioxo-3-piperidyl)isoindoline-1,3-dione] | < 100 nM | < 100 nM | – | –

Further lines, results first:

Row | DC50 (CDK9 [1]) | DC50 (CDK9 [2]) | DC50 (CDK9 [1]; [3]) | DC50 (CDK9 [2]; [3]) | Structure (SMILES)
9 | < 100 nM | < 100 nM | – | – | C/C=C(\CC)c1cc(N[C@H]2CC[C@H](NCC(=O)N3CCN(CCCNc4cccc5c4C(=O)N(C4CCC(=O)NC4=O)C5=O)CC3)C2)n2ncc(Cl)c2n1 (stereo partly drawn) [Compound 57.0, 4-[3-[4-[2-[[(1S,3S)-3-[[3-chloro-5-[(E)-1-ethylprop-1-enyl]pyrazolo[1,5-a]pyrimidin-7-yl]amino]cyclopentyl]amino]acetyl]piperazin-1-yl]propylamino]-2-(2,6-dioxo-3-piperidyl)isoindoline-1,3-dione]
10 | < 100 nM | < 100 nM | – | – | C/C=C(\CC)c1cc(N[C@H]2CC[C@H](NCC(=O)N3CCN(CCCCNc4cccc5c4C(=O)N(C4CCC(=O)NC4=O)C5=O)CC3)C2)n2ncc(Cl)c2n1 (stereo partly drawn) [Compound 59.0, 4-[4-[4-[2-[[(1S,3S)-3-[[3-chloro-5-[(E)-1-ethylprop-1-enyl]pyrazolo[1,5-a]pyrimidin-7-yl]amino]cyclopentyl]amino]acetyl]piperazin-1-yl]butylamino]-2-(2,6-dioxo-3-piperidyl)isoindoline-1,3-dione]
11 | – | – | 53 nM | 11 nM | CC(C)(C)c1cnc(CSc2cnc(NC(=O)C3CCN(CC(=O)NCCOCCOCCOCCNc4cccc5c4C(=O)N(C4CCC(=O)NC4=O)C5=O)CC3)s2)o1 (stereo not shown) [THAL-SNS-032, reference compound]
